Experimental data taken from patent US20250090489A1, “CATIONIC POLYMERIC NANOCARRIERS INHIBIT CHEMOTHERAPY-INDUCED CANCER METASTASIS AND COGNITIVE IMPAIRMENT” (The Trustees of Columbia University in the City of New York, priority 2022, published 2025).

Assays:
[1] = Balb/c mice; compared to saline control
Method: In order to detect if mice experienced any behavioral changes under treatments, open field tests and pain sensitivity behavioral tests were performed.

[2] = test system: MDA-MB-231 human breast tumor with lung metastasis; conditions: NSG mouse
From the text: The anticancer efficacy of the nanoparticles has been evaluated in a NSG mouse model bearing MDA-MB-231 human breast tumor with lung metastasis. […] A thorough characterization of lung metastasis has been performed with a combination of IVIS imaging, H&E staining, and machine learning.

Row | Compound | distance traveled in open field test [1] | lung metastasis ([2]; MDA-MB-231, IVIS imaging, H&E staining, machine learning) | primary tumor inhibition efficacy ([2]; MDA-MB-231 tumor)
1 | COc1cccc2c1C(=O)c1c(O)c3c(c(O)c1C2=O)C[C@@](O)(C(=O)CO)C[C@@H]3O[C@H]1C[C@H](N)[C@H](O)[C@H](C)O1 [doxorubicin] | significant attenuation in the distance |  | 
2 | CC(=O)O[C@H]1C(=O)[C@@]2(C)[C@H]([C@H](OC(=O)c3ccccc3)[C@]3(O)C[C@H](OC(=O)[C@H](O)[C@@H](NC(=O)c4ccccc4)c4ccccc4)C(C)=C1C3(C)C)[C@]1(OC(C)=O)CO[C@@H]1C[C@@H]2O [paclitaxel free drug, paclitaxel] |  | shows no therapeutic effect to metastasis, and even induce more metastasis | inhibits primary tumor
